The text below walks through data of patent publication US7981903B2, “2-[2-{phenylamino}-1H-pyrrolo[2,3-D]pyrimidin-4-yl)amino] benzamide derivatives as IGF-1R inhibitors for the treatment of cancer” (GlaxoSmithKline LLC, priority 2007, dated 2011).

In one experiment the target is T1, human IR (hIR) (Homo sapiens, UniProt P06213).
T1 construct: containing amino acid residues 979-1382 of human IR; made in house; host or cells: Sf9 cells (baculovirus), same process as hIGF1R
In words: TR-FRET kinase assay of purified hIR. It is filed as biochemical. The settings on record: activated hIR 0.5 nM, 10 μM ATP, values given as pIC50 category.

A further experiment has as its target T2, human IGF1R (hIGF1R) (Homo sapiens, UniProt P08069).
T2 construct: containing amino acid residues 957-1367 of human IGF1R; made in house; host or cells: Sf9 cells (baculovirus)
In words: TR-FRET kinase assay of purified hIGF1R. It is filed as biochemical. The note with it: activated hIGF1R 0.5 nM, 10 μM ATP, values given as pIC50 category, read-out: IGF-1R pIC50 (converted).

Experiment [1] has as its target T3, NIH-3T3 cells overexpressing human IR (Homo sapiens, UniProt P06213).
T3 construct: expressed in transfected cells; host or cells: NIH-3T3 (mouse fibroblasts)
In words: IR cellular autophosphorylation (DELFIA). Type of experiment: cell-based. The settings on record: 2 h compound, insulin 3 ug/ml for 15 minutes, IC50 category. A digest of the protocol: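 Receptor autophosphorylation measured by DELFIA, capturing IGF-1R or IRβ and detecting with europium anti-pTyr, reported as percent of IGF-1- or insulin-stimulated signal. Compounds (30 uM to 1.5 nM) added 2 h before ligand, then 15 min stimulation (IGF-1 30 ng/ml or insulin 3 ug/ml).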

Molecules are shown by their SMILES.

T1 sequence (P06213 979-1382): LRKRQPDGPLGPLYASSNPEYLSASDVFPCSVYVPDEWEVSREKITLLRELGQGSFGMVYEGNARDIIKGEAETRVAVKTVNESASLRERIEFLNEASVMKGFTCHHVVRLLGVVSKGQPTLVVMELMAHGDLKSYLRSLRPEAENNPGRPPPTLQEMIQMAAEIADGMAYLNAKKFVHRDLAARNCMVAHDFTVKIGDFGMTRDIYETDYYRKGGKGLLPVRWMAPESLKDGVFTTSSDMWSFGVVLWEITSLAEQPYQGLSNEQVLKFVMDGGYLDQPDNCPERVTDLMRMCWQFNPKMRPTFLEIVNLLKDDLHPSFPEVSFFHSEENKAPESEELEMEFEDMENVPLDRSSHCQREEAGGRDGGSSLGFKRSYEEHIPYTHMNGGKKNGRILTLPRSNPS
T2 sequence (P08069 957-1367): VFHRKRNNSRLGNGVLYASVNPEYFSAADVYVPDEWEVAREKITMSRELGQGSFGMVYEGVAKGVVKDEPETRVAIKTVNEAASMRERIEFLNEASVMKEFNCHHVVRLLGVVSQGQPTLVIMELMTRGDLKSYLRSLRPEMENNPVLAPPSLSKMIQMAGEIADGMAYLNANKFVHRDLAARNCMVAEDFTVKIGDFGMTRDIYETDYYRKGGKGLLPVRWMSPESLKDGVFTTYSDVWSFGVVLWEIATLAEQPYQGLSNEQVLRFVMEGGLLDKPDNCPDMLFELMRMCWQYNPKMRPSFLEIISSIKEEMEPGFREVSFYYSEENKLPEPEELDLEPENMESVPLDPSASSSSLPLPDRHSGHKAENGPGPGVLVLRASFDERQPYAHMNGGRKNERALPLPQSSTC
T3 sequence (P06213 28-1382): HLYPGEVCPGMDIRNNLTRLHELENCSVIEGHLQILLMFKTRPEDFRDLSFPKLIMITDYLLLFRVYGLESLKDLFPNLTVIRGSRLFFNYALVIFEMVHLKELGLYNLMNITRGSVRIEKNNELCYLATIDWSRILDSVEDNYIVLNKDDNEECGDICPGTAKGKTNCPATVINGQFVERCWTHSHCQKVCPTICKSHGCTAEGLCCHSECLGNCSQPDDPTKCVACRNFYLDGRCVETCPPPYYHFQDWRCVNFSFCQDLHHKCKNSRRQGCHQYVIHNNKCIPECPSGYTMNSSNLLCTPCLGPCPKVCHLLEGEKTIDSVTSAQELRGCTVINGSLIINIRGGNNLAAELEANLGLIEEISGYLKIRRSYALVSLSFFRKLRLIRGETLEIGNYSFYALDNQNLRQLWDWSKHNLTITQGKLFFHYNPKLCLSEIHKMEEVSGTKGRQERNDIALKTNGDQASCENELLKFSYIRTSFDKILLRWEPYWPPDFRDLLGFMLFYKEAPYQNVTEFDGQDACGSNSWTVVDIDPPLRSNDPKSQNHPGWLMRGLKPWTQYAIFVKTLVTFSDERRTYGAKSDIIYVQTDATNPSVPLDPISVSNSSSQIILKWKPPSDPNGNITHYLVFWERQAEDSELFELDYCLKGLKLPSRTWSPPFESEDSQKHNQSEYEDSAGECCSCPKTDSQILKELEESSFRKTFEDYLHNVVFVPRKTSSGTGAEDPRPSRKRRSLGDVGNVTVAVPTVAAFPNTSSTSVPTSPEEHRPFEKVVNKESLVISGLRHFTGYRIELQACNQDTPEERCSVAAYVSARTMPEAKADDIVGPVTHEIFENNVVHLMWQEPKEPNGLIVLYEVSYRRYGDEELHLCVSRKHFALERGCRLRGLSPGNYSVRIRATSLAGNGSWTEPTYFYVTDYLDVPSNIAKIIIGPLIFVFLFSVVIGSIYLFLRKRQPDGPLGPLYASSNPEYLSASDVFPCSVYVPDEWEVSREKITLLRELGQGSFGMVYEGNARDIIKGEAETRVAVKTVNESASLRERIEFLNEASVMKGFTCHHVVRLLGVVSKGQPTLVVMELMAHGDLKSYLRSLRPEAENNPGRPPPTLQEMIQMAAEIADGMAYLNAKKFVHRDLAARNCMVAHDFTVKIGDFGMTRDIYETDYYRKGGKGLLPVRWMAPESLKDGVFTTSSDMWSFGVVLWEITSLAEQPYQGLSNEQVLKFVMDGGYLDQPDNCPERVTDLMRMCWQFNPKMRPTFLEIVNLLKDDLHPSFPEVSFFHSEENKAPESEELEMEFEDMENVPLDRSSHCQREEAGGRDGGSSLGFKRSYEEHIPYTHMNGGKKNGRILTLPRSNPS

Take `COc1cc2c(cc1Nc1nc(Nc3cc(F)cc(F)c3C(N)=O)c3cc[nH]c3n1)N(C(=O)CN(C)C)CC2` [Example 189, 2-[(2-{[1-(N,N-dimethylglycyl)-5-(methyloxy)-2,3-dihydro-1H-indol-6-yl]amino}-1H-pyrrolo[2,3-d]pyrimidin-4-yl)amino]-4,6-difluorobenzamide]: the IC50 is 0.251 to 1 nM on human IR (hIR), 0.251 to 1 nM at human IGF1R (hIGF1R) and less than 100 nM in experiment [1].
With `CNC(=O)c1c(F)cc(F)cc1Nc1nc(Nc2cc3c(cc2OC)CCN3C(=O)CN(C)C)nc2[nH]ccc12` [Example 190, 2-[(2-{[1-(N,N-dimethylglycyl)-5-(methyloxy)-2,3-dihydro-1H-indol-6-yl]amino}-1H-pyrrolo[2,3-d]pyrimidin-4-yl)amino]-4,6-difluoro-N-methylbenzamide], the IC50 against human IR (hIR) was 0.251 to 1 nM; at human IGF1R (hIGF1R), 0.251 to 1 nM; in experiment [1], less than 100 nM.
Take `CCCN(CCC)[C@@H](C)C(=O)N1CCc2cc(OC)c(Nc3nc(Nc4cccc(F)c4C(=O)NC)c4cc[nH]c4n3)cc21` [Example 191, 2-[(2-{[1-(N,N-dipropyl-L-alanyl)-5-(methyloxy)-2,3-dihydro-1H-indol-6-yl]amino}-1H-pyrrolo[2,3-d]pyrimidin-4-yl)amino]-6-fluoro-N-methylbenzamide]: the IC50 against human IR (hIR) was 5.01 to 158 nM; at human IGF1R (hIGF1R), 5.01 to 200 nM; in experiment [1], greater than 500 nM.
The matching figures for `CCCN(CCC)[C@@H](C)C(=O)N1CCc2cc(OC)c(Nc3nc(Nc4cccc(F)c4C(N)=O)c4cc[nH]c4n3)cc21` [Example 192, 2-[(2-{[1-(N,N-dipropyl-L-alanyl)-5-(methyloxy)-2,3-dihydro-1H-indol-6-yl]amino}-1H-pyrrolo[2,3-d]pyrimidin-4-yl)amino]-6-fluorobenzamide]: 1.26 to 3.98 nM, 5.01 to 200 nM and less than 100 nM.
The matching figures for `CNC(=O)c1c(F)cccc1Nc1nc(Nc2cc3c(cc2OC)CCN3C(=O)C(C)(C)O)nc2[nH]ccc12` [Example 193, 2-fluoro-6-[(2-{[1-(2-hydroxy-2-methylpropanoyl)-5-(methyloxy)-2,3-dihydro-1H-indol-6-yl]amino}-1H-pyrrolo[2,3-d]pyrimidin-4-yl)amino]-N-methylbenzamide]: 5.01 to 158 nM, 5.01 to 200 nM and greater than 500 nM.
The matching figures for `COc1cc2c(cc1Nc1nc(Nc3cccc4c3C(=O)NC4)c3cc[nH]c3n1)N(C(=O)CN(C)C)CC2` [Example 200, 7-[(2-{[1-(N,N-dimethylglycyl)-5-(methyloxy)-2,3-dihydro-1H-indol-6-yl]amino}-1H-pyrrolo[2,3-d]pyrimidin-4-yl)amino]-2,3-dihydro-1H-isoindol-1-one]: 0.251 to 1 nM, 0.251 to 1 nM and less than 100 nM.
Consider `CNC(=O)c1c(F)cccc1Nc1nc(Nc2cc3c(cc2OC)CCCN3C(=O)[C@@H]2CCCN2C)nc2[nH]ccc12` [Example 202, 2-fluoro-N-methyl-6-[(2-{[6-(methyloxy)-1-(1-methyl-L-prolyl)-1,2,3,4-tetrahydro-7-quinolinyl]amino}-1H-pyrrolo[2,3-d]pyrimidin-4-yl)amino]benzamide], for which the values for the IC50 (against human IR (hIR); at human IGF1R (hIGF1R); in experiment [1]) were 5.01 to 158 nM, 5.01 to 200 nM and 100 to 500 nM, respectively.
The matching figures for `COc1cc(OCCN2CCN(C)CC2)ccc1Nc1nc(Nc2cccc(F)c2C(N)=O)c2cc[nH]c2n1` [Example 203, 2-fluoro-6-({2-[(2-(methyloxy)-4-{[2-(4-methyl-1-piperazinyl)ethyl]oxy}phenyl)amino]-1H-pyrrolo[2,3-d]pyrimidin-4-yl}amino)benzamide]: 1.26 to 3.98 nM, 5.01 to 200 nM and less than 100 nM.
Turning to `COc1cc(N2CCN(S(C)(=O)=O)CC2)ccc1Nc1nc(Nc2cccc(F)c2C(N)=O)c2cc[nH]c2n1` [Example 204, 2-fluoro-6-{[2-({2-(methyloxy)-4-[4-(methylsulfonyl)-1-piperazinyl]phenyl}amino)-1H-pyrrolo[2,3-d]pyrimidin-4-yl]amino}benzamide], the IC50 is 1.26 to 3.98 nM against human IR (hIR), 5.01 to 200 nM at human IGF1R (hIGF1R) and greater than 500 nM in experiment [1].
With `COc1cc(OCCCN2CCN(C)CC2)ccc1Nc1nc(Nc2cccc(F)c2C(N)=O)c2cc[nH]c2n1` [Example 205, 2-fluoro-6-({2-[(2-(methyloxy)-4-{[3-(4-methyl-1-piperazinyl)propyl]oxy}phenyl)amino]-1H-pyrrolo[2,3-d]pyrimidin-4-yl}amino)benzamide], the IC50 against human IR (hIR) is 1.26 to 3.98 nM; at human IGF1R (hIGF1R), 5.01 to 200 nM; in experiment [1], 100 to 500 nM.
The matching figures for `COc1cc(N2CCCN(S(C)(=O)=O)CC2)ccc1Nc1nc(Nc2cccc(F)c2C(N)=O)c2cc[nH]c2n1` [Example 207, 2-fluoro-6-{[2-({2-(methyloxy)-4-[4-(methylsulfonyl)hexahydro-1H-1,4-diazepin-1-yl]phenyl}amino)-1H-pyrrolo[2,3-d]pyrimidin-4-yl]amino}benzamide]: 5.01 to 158 nM, 5.01 to 200 nM and greater than 500 nM.
The matching figures for `COc1cc(N2CCCN(C(C)C)CC2)ccc1Nc1nc(Nc2cccc(F)c2C(N)=O)c2cc[nH]c2n1` [Example 208, 2-fluoro-6-[(2-{[4-[4-(1-methylethyl)hexahydro-1H-1,4-diazepin-1-yl]-2-(methyloxy)phenyl]amino}-1H-pyrrolo[2,3-d]pyrimidin-4-yl)amino]benzamide]: 5.01 to 158 nM, 5.01 to 200 nM and 100 to 500 nM.
The matching figures for `COc1cc2c(cc1Nc1nc(Nc3cccc(F)c3C(N)=O)c3cc[nH]c3n1)N(C(=O)CN(C)C)CCC2` [Example 210, 2-[(2-{[1-(N,N-dimethylglycyl)-6-(methyloxy)-1,2,3,4-tetrahydro-7-quinolinyl]amino}-1H-pyrrolo[2,3-d]pyrimidin-4-yl)amino]-6-fluorobenzamide]: 0.251 to 1 nM, 0.251 to 1 nM and less than 100 nM.
`COc1cc2c(cc1Nc1nc(Nc3cccc(F)c3C(N)=O)c3cc[nH]c3n1)NCCC2` [Example 211, 2-fluoro-6-[(2-{[6-(methyloxy)-1,2,3,4-tetrahydro-7-quinolinyl]amino}-1H-pyrrolo[2,3-d]pyrimidin-4-yl)amino]benzamide]: the figures for the IC50 (against human IR (hIR); at human IGF1R (hIGF1R); in experiment [1]) were 5.01 to 158 nM, 5.01 to 200 nM and greater than 500 nM, respectively.
The matching figures for `CNC(=O)c1c(F)cccc1Nc1nc(Nc2cc3c(cc2OC)CCCN3C(=O)CCN(C)C)nc2[nH]ccc12` [Example 213, 2-[(2-{[1-(N,N-dimethyl-β-alanyl)-6-(methyloxy)-1,2,3,4-tetrahydro-7-quinolinyl]amino}-1H-pyrrolo[2,3-d]pyrimidin-4-yl)amino]-6-fluoro-N-methylbenzamide]: 5.01 to 158 nM, 5.01 to 200 nM and greater than 500 nM.
The matching figures for `COc1cc2c(cc1Nc1nc(Nc3cccc(F)c3C(N)=O)c3cc[nH]c3n1)N(C(=O)CCN(C)C)CCC2` [Example 214, 2-[(2-{[1-(N,N-dimethyl-β-alanyl)-6-(methyloxy)-1,2,3,4-tetrahydro-7-quinolinyl]amino}-1H-pyrrolo[2,3-d]pyrimidin-4-yl)amino]-6-fluorobenzamide]: 5.01 to 158 nM, 5.01 to 200 nM and 100 to 500 nM.
The matching figures for `COc1cc2c(cc1Nc1nc(Nc3cccc(F)c3C(N)=O)c3cc[nH]c3n1)N(C(=O)CN1CCCCC1)CCC2` [Example 218, 2-fluoro-6-[(2-{[6-(methyloxy)-1-(1-piperidinylacetyl)-1,2,3,4-tetrahydro-7-quinolinyl]amino}-1H-pyrrolo[2,3-d]pyrimidin-4-yl)amino]benzamide]: 0.251 to 1 nM, 0.251 to 1 nM and less than 100 nM.
In the case of `COc1cc2c(cc1Nc1nc(Nc3cc(F)cc(F)c3C(N)=O)c3cc[nH]c3n1)N(C(=O)CN1CCCC1)CCC2` [Example 219, 2,4-difluoro-6-[(2-{[6-(methyloxy)-1-(1-pyrrolidinylacetyl)-1,2,3,4-tetrahydro-7-quinolinyl]amino}-1H-pyrrolo[2,3-d]pyrimidin-4-yl)amino]benzamide], the results for the IC50 (at human IR (hIR); at human IGF1R (hIGF1R); in experiment [1]) were 0.251 to 1 nM, 0.251 to 1 nM and less than 100 nM, respectively.
On to `CNC(=O)c1c(F)cc(F)cc1Nc1nc(Nc2cc3c(cc2OC)CCCN3C(=O)CN2CCCC2)nc2[nH]ccc12` [Example 221, 2,4-difluoro-N-methyl-6-[(2-{[6-(methyloxy)-1-(1-pyrrolidinylacetyl)-1,2,3,4-tetrahydro-7-quinolinyl]amino}-1H-pyrrolo[2,3-d]pyrimidin-4-yl)amino]benzamide], for which the IC50 was 0.251 to 1 nM on human IR (hIR), 0.251 to 1 nM at human IGF1R (hIGF1R) and less than 100 nM in experiment [1].
Turning to `COc1cc2c(cc1Nc1nc(Nc3cccc(F)c3C(N)=O)c3cc[nH]c3n1)CN(C(=O)CCN1CCN(C(C)C)CC1)CC2` [Example 229, 2-fluoro-6-[(2-{[2-{3-[4-(1-methylethyl)-1-piperazinyl]propanoyl}-6-(methyloxy)-1,2,3,4-tetrahydro-7-isoquinolinyl]amino}-1H-pyrrolo[2,3-d]pyrimidin-4-yl)amino]benzamide], the figures for the IC50 (against human IR (hIR); at human IGF1R (hIGF1R); in experiment [1]) were 5.01 to 158 nM, 5.01 to 200 nM and greater than 500 nM, respectively.
